Read-outs that look alike come from different tables or passages of the source. No end group written: not given here.
Assays:
autophagy = settings: cited from earlier work; for inhibitory effects on autophagy: human cells (Meijer et al. 2015)
mTOR kinases = settings: cited from earlier work; for activators of mTOR or inhibitors of autophagy, compared with other amino acids: alone or in combination, literature search November 2011
CXCR4 = molecular target: T1, CXCR4 (Homo sapiens, UniProt P61073); settings: cited from earlier work; for agonist behaviour in chemotaxis: CCRF-CEM cell line
T1 construct: In chemotaxis assays using the acute lymphoblastic leukemia cell line CCRF-CEM; endogenous in cells; host or cells: CCRF-CEM
T1 sequence (P61073 whole entry): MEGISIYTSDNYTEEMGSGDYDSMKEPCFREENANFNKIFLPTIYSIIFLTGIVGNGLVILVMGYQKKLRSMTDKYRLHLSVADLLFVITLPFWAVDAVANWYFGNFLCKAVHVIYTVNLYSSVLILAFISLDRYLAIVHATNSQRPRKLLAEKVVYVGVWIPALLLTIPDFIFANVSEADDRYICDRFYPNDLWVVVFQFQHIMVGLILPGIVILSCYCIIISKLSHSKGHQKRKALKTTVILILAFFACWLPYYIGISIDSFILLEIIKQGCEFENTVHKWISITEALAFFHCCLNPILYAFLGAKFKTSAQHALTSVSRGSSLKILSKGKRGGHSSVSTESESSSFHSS

neutrophil = settings: cited from earlier work
p38 MAPK = assay: FPR-signaling assay: p38 MAPK phosphorylation in FPR-expressing cells stimulated with fMLP; assay type: cell-based
Description: (§1) Both AQGV (SEQ ID NO:11) peptide effects on p38 and PKB-mediated signalling last for the full 600 seconds tested whereas the other kinases tested were not affected throughout. […] The pathway is governing the balance between proteolysis and proteogenesis regulating cytoskeleton changes affecting vascular permeability. It is shown that an autophagy-inhibiting peptide reduces p38 MAPK kinase activated changes as well as reduces PI3K/AKT/mTOR activated induced changes in cell cytoskeleton reorganization affecting endothelial cell contraction and adverse vascular permeability. Autophagy-inhibiting peptide is useful and capable of addressing adverse vascular permeability, such as manifested by edema with vascular leakage, adverse leukocyte extravasation and hypotension, tissue injury and immune responses in human subjects.

PKB (also known as AKT) = assay: FPR-signaling assay: PKB (AKT) phosphorylation in FPR-expressing cells stimulated with fMLP; assay type: cell-based
Description: The pathway is governing the balance between proteolysis and proteogenesis regulating cytoskeleton changes affecting vascular permeability.

[1] = test system: STAT3, JNK and P42/p44MAPK/ERK1,2 kinases; assay: FPR-signaling assay: STAT3, JNK and P42/p44MAPK/ERK1,2 phosphorylation in FPR-expressing cells; assay type: cell-based
Description: as §1

[2] = cited from earlier work
[3] = 50 mg/kg twice daily i.p.; cited from earlier work
[4] = cited from earlier work; remark: listed apart in the source
guinea pig skin = settings: internal standard […]; cited from earlier work
[5] = Distribution and elimination of intravenously injected [14C]-AQGV from mice; assay type: in vivo
Procedure: The present study, which was conducted by TNO Biosciences, Utrechtseweg, Netherlands, was designed to provide data on the distribution and metabolism of [14C]-AQGV (SEQ ID NO:11) (Ala-Gln-[1-^14C]Gly-Val) in male CD-1 mice following a single intravenous dose of 50 mg/kg. To this end, mice were sacrificed at 10, 30 and 60 minutes, and 6 and 24 hours after administration of radiolabeled AQGV (SEQ ID NO:11), counts in various tissues were determined, and the radioactivity present in the urine and plasma were analyzed by HPLC.

[6] = cited from earlier work; remark: listed apart in the source

C[C@H](N)C(=O)O [L-Alanine]
Literature-based activity: autophagy (autophagy): DOWN | inhibitory effects on autophagy (autophagy): most prominent | activators of mTOR or inhibitors of autophagy, compared with other amino acids (mTOR kinases): more potent

ASLW (CXCR4 superagonist) [peptide agonist of CXCR4]
agonist behaviour in chemotaxis (CXCR4): superagonist | sensitivity to the CXCR4 antagonist AMD3100 (CXCR4): insensitive

CC(C)[C@H](N)C(=O)O [L-Valine]
activators of mTOR or inhibitors of autophagy, compared with other amino acids (mTOR kinases): more potent | Literature-based activity: mTOR kinases (mTOR kinases): activate

O=C(O)[C@@H]1CCCN1 [L-Proline]
inhibitory effects on autophagy (autophagy): most prominent | activators of mTOR or inhibitors of autophagy, compared with other amino acids (mTOR kinases): more potent | Literature-based activity: mTOR kinases (mTOR kinases): activate

CC[C@H](C)[C@H](N)C(=O)O [L-Isoleucine]
Literature-based activity: autophagy (autophagy): DOWN | activators of mTOR or inhibitors of autophagy, compared with other amino acids (mTOR kinases): more potent | Literature-based activity: mTOR kinases (mTOR kinases): activate

Acetyl-proline-glycine-proline [AcPGP]
concentration level at which the chemoattractant operates (neutrophil; ELR+ CXC chemokines are functional at nanomolar levels): micromolar level

CSCC[C@H](N)C(=O)O [L-Methionine]
activators of mTOR or inhibitors of autophagy, compared with other amino acids (mTOR kinases): no or opposite effects | Literature-based activity: mTOR kinases (mTOR kinases): partial inhibit

NCCCC[C@H](N)C(=O)O [L-Lysine]
activators of mTOR or inhibitors of autophagy, compared with other amino acids (mTOR kinases): no or opposite effects | Literature-based activity: mTOR kinases (mTOR kinases): down

N[C@@H](Cc1ccc(O)cc1)C(=O)O [tyrosine, L-Tyrosine]
activators of mTOR or inhibitors of autophagy, compared with other amino acids (mTOR kinases): no or opposite effects

C[C@@H](O)[C@H](N)C(=O)O [L-Threonine]
activators of mTOR or inhibitors of autophagy, compared with other amino acids (mTOR kinases): no or opposite effects | Literature-based activity: mTOR kinases (mTOR kinases): down

Pro-Gly-Pro [PGP]
potency in evoking neutrophil chemotaxis, less than AcPGP (neutrophil; unacetylated versus acetylated peptide): 4-7 fold

N[C@@H](CO)C(=O)O [serine, L-Serine]
activators of mTOR or inhibitors of autophagy, compared with other amino acids (mTOR kinases): no or opposite effects

AQGV (tetrapeptide)
effect on p38/p38-MK2-HSP27 and/or PI3K/AKT/mTOR pathways (p38 MAPK; formyl-peptide related signaling): attenuate | duration of peptide effects on p38-mediated signalling (p38 MAPK; full period tested): 600 s | time at which peptide effects on p38 MAPK are detected after FPR-stimulation (p38 MAPK; peptide at 20 ng/ml or 50 ng/ml, fMLP stimulation): 30 s | time at which peptide effects on PKB(AKT) follow after FPR-stimulation (PKB (also known as AKT); bi-phasic pattern, peptide at 20 ng/ml or 50 ng/ml, fMLP stimulation): 300 s | duration of peptide effects on PKB-mediated signalling (PKB (also known as AKT); full period tested): 600 s | peptide effect on the other kinases tested ([1]; throughout 600 seconds): not affected | endotoxin induced increase in plasma levels of cytokines and adhesion molecule VCAM-1 ([2]; 180 mg/kg (the highest dose)): significant attenuation | fever and flu-like symptoms ([2]; the highest dose): reduced | renal function and allograft survival [3]: improved | survival ([4]; 20-50 mg/kg twice daily i.p. for four days, started 24 hours after IRI, dose dependent): markedly improved | CTGF up-regulation, marker of post-ischemic fibrosis ([4]; four weeks after IRI, renal tissue): significantly less | tubular epithelial cell proliferation ([4]; mouse, in vivo): significantly enhanced | acute tubular injury ([4]; two days after IRI): diminished

CC(C)C[C@H](N)C(=O)O [L-Leucine]
Literature-based activity: autophagy (autophagy): DOWN | inhibitory effects on autophagy (autophagy): most prominent | activators of mTOR or inhibitors of autophagy, compared with other amino acids (mTOR kinases): more potent | Literature-based activity: mTOR kinases (mTOR kinases): activate

NCC(=O)O [L-Glycine]
Literature-based activity: autophagy (autophagy): DOWN | activators of mTOR or inhibitors of autophagy, compared with other amino acids (mTOR kinases): more potent

acyl-YSFKPMPLaR (YSFKPMPLXR; N-acetyl; D-Ala; chemoattractant motif; MOD_RES (1)..(1) …ON; VARIANT (9)..(9) is D-ala) [conformationally constrained decapeptide agonist analog of C5a65-74]
potency relative to unconstrained analog […] (guinea pig skin): at least 10 fold

N[C@@H](Cc1c[nH]cn1)C(=O)O [L-Histidine]
Literature-based activity: mTOR kinases (mTOR kinases): down

Ala-Gln-[1-^14C]Gly-Val (AQGV; also: 14C label at C1 of Gly ([1-14C]Gly)) [[14C]-AQGV]
average total recovery of radioactivity ([5]; 10 minutes after dose administration): 83.2% | average total recovery of radioactivity ([5]; 30 minutes after dose administration): 70.5% | average total recovery of radioactivity ([5]; 60 minutes after dose administration): 62.9% | average total recovery of radioactivity ([5]; 6 hours after dose administration): 52.6% | average total recovery of radioactivity ([5]; 24 hours after dose administration): 50.8% | administered radioactivity excreted in feces ([5]; after 24 hours): 2.6% | administered radioactivity excreted in urine ([5]; after 24 hours): 10.2% | radioactivity in the blood, amount if all counts were in intact peptide ([5]; blood, 10 minutes after single i.v. dose of 50 mg/kg): 17.2 µg/g | concentration of "peptide" (radioactivity) ([5]; kidneys, after 10 minutes): 362 µg/g | concentration of "peptide" (radioactivity) ([5]; kidneys, after 24 hours): 61.9 µg/g | concentration of "peptide" (radioactivity) ([5]; liver, after 10 minutes): 105 µg/g | concentration of "peptide" (radioactivity) ([5]; liver, after 24 hours): 37.6 µg/g | concentration of "peptide" (radioactivity) ([5]; lung, after 10 minutes): 75.2 µg/g | time to full hydrolysis of the peptide after administration ([5]; mice): 15 min | parent compound in plasma (HPLC) ([5]; plasma, after 10 minutes, 50 mg/kg i.v.): No parent compound could be detected | concentration of "peptide" (radioactivity) ([5]; skin, after 24 hours): 37.5 µg/g | concentration of "peptide" (radioactivity) ([5]; spleen, after 10 minutes): 74.7 µg/g | concentration of "peptide" (radioactivity) ([5]; spleen, after 24 hours): 39.3 µg/g | concentration of "peptide" (radioactivity) ([5]; testis, after 10 minutes): 85.7 µg/g | concentration of "peptide" (radioactivity) ([5]; thymus, after 24 hours): 43.1 µg/g | administered radioactivity exhaled as volatiles, most likely 14C-CO2 ([5]; up to 24 hours): About 50% | parent compound in urine (HPLC) ([5]; urine, 50 mg/kg i.v.): No parent compound was detected

LQGV (tetrapeptide) [tetrapeptide, sister compound of AQGV]
survival ([6]; 5 mg/kg bodyweight combined with fluid resuscitation and antibiotics, severe cecal ligation and puncture, 30% without peptide): 70% | survival ([6]; 5 mg/kg bodyweight, first 5 days after moderate cecal ligation and puncture, 20% without): 50% | pulmonary nuclear factor-κB activation and pulmonary damage ([6]; mouse, in vivo): reduced | cytokine and E-selectin levels ([6]; peritoneal lavage fluid, lungs, to a lesser extent plasma): reduced

CSCC[C@H](NC=O)C(=O)N[C@@H](CC(C)C)C(=O)N[C@@H](Cc1ccccc1)C(=O)O [fMLP, N-Formyl-L-methionyl-L-leucyl-L-phenylalanine, reference compound]
changes in phosphorylation status of p38 MAPK on FPR-activation (p38 MAPK; FPR-expressing cells, p<0.05 from 60 to 600 seconds): significant | changes in phosphorylation status of PKB (AKT) on FPR-activation (PKB (also known as AKT); FPR-expressing cells, p<0.05 at 600 seconds): significant | changes in phosphorylation status of STAT3, JNK and P42/p44MAPK/ERK1,2 on FPR-activation ([1]; FPR-expressing cells): not (or not detectable)

N[C@@H](CCC(=O)O)C(=O)O [glutamate, L-Glutamic Acid]
activators of mTOR or inhibitors of autophagy, compared with other amino acids (mTOR kinases): no or opposite effects

NC(=O)CC[C@H](N)C(=O)O [L-Glutamine]
Literature-based activity: autophagy (autophagy): DOWN | inhibitory effects on autophagy (autophagy): most prominent | activators of mTOR or inhibitors of autophagy, compared with other amino acids (mTOR kinases): more potent | Literature-based activity: mTOR kinases (mTOR kinases): activate

N=C(N)NCCC[C@H](N)C(=O)O [L-Arginine]
Literature-based activity: autophagy (autophagy): DOWN | activators of mTOR or inhibitors of autophagy, compared with other amino acids (mTOR kinases): more potent | Literature-based activity: mTOR kinases (mTOR kinases): activate

N[C@@H](Cc1ccccc1)C(=O)O [phenylalanine, L-Phenylalanine]
activators of mTOR or inhibitors of autophagy, compared with other amino acids (mTOR kinases): no or opposite effects

RSVM (CXCR4 partial agonist) [peptide agonist of CXCR4]
agonist behaviour in chemotaxis (CXCR4): partial agonist | sensitivity to the CXCR4 antagonist AMD3100 (CXCR4): insensitive

Source: patent publication US20240173375A1, “CHEMOTACTIC AUTOPHAGY-INHIBITING PEPTIDE, COMPOSITIONS AND METHODS RELATED THERETO” (Biotempt B.V., priority 2021, published 2024)
